Laboratory results from patent US20240398947A1, “CAR T-CELL ADJUVANT THERAPIES” (CytoAgents, Inc., priority 2020, published 2024).

What was measured:
normal human PBMC [1] = experiment: Cytokine release assay in stimulated normal human PBMC (Luminex multiplex); assay type: cell-based; conditions: for significant reduction of IL-1α / significant reduction of IL-1β: 5 donors
influenza (H1N1) = assay type: in vivo, mice
normal human PBMC [2] = experiment: AlamarBlue cell viability of treated PBMC; assay type: cell-based; conditions: PBMC of Donors 1-5, 48 hours post stimulation, GP1681 750 μM
Protocol: Following pre-treatment, cells were stimulated with either LPS or Poly (I:C). Twenty-four to forty-eight hours post-stimulation supernatants were collected and tested both for viability (48 hours) as well as concentrations of 29 different cytokines (24 hours.). Viability assessments confirmed the lack of GP1681-associated cell cytotoxicity. Statistical comparisons in individual donor results were conducted between all test groups within each donor group (between individual stimulant-treatment pairs) to determine efficacy of stimulation as well as any potential GP1681 effects on cytokine production. Additionally, statistical analysis was performed on pooled donor data for each cytokine stimulant-treatment pair to comprehensively determine cytokine suppression effects of GP1681 for each cytokine.
After resting the cells, 100 μl of GP1681 was added to appropriate wells at a final dosing concentration of 750 μM. […] For cell stimulation, 20 μL of the 1.0 ng/ml LPS solution or the 250 μg/ml Poly (I:C) solution were added to appropriate wells according to the group designation. Twenty-four hours later 100 uL of supernatant were collected from all wells and stored for cytokine analysis. Approximately four hours before final harvest, AlamarBlue dye was added to all wells. At forty-eight hours post stimulation all samples were collected, and supernatants tested for cell viability. […]

influenza (H5N1) = conditions: in vivo influenza (H5N1), Gemmus Pharma studies; cited from earlier work
CRS = experiment: Mouse model of CAR T-cell therapy induced CRS (Raji-luc tumor); conditions: IP, BID for 7 days
[3] = LPS-stimulated PBMC, 24 h supernatant, DEX 1 μM, GP1681 750 μM
[4] = Poly(I:C)-stimulated PBMC, 24 h supernatant, DEX 1 μM, GP1681 750 μM
[5] = in vivo influenza (H1N1), current CytoAgents studies

With `CC#CC[C@H](C)[C@H](O)/C=C/[C@@H]1[C@H]2c3cccc(CCCC(=O)[O-])c3O[C@H]2C[C@H]1O.[Na+]` [GP1681, esuberaprost sodium salt] the “number of cytokines reduced of the 29 cytokines analyzed” value (normal human PBMC [1]; LPS or Poly(I:C) stimulated PBMC, pooled and individual donor results) was 21, the “significant reduction of IL-1α” value (normal human PBMC [1]; [3]) was “YES” and the “significant reduction of IL-1β” value (normal human PBMC [1]; [3]) was “YES”. For the same molecule, the “significant reduction of CCL2 (MCP-1)” value (normal human PBMC [1]; [3]) was “YES”, the “significant reduction of CCL3 (MIP1 α)” value (normal human PBMC [1]; [3]) was “YES” and the “significant reduction of CCL5 (RANTES)” value (normal human PBMC [1]; [3]) was “YES”. For the same molecule, the “significant reduction of CXCL9 (MIG)” value (normal human PBMC [1]; [3]) was “YES”, the “significant reduction of CXCL10 (IP-10)” value (normal human PBMC [1]; [3]) was “YES” and the “significant reduction of FGF” value (normal human PBMC [1]; [3]) was “YES”. For the same molecule, the “significant reduction of GM-CSF” value (normal human PBMC [1]; [3]) was “YES”, the “significant reduction of IFN-α2” value (normal human PBMC [1]; [3]) was “YES” and the “significant reduction of IFN-γ” value (normal human PBMC [1]; [3]) was “YES”. The “significant reduction of IL-4” value (normal human PBMC [1]; [3]) was “YES”, the “significant reduction of IL-5” value (normal human PBMC [1]; [3]) was “YES” and the “significant reduction of IL-9” value (normal human PBMC [1]; [3]) was “YES”. For the same molecule, the “significant reduction of IL-12” value (normal human PBMC [1]; [3]) was “YES”, the “significant reduction of IL-13” value (normal human PBMC [1]; [3]) was “YES” and the “significant reduction of IL-15” value (normal human PBMC [1]; [3]) was “YES”. The “significant reduction of IL-17” value (normal human PBMC [1]; [3]) was “YES”, the “significant reduction of IL-18” value (normal human PBMC [1]; [3]) was “YES” and the “significant reduction of PDGF” value (normal human PBMC [1]; [3]) was “YES”. For the same molecule, the “significant reduction of TNF α” value (normal human PBMC [1]; [3]) was “YES”, the “significant reduction of IL-1α” value (normal human PBMC [1]; [4]) was “YES” and the “significant reduction of IL-1β” value (normal human PBMC [1]; [4]) was “YES”. For the same molecule, the “significant reduction of CCL2 (MCP-1)” value (normal human PBMC [1]; [4]) was “YES”, the “significant reduction of CCL5 (RANTES)” value (normal human PBMC [1]; [4]) was “YES” and the “significant reduction of CXCL9 (MIG)” value (normal human PBMC [1]; [4]) was “YES”. For the same molecule, the “significant reduction of CXCL10 (IP-10)” value (normal human PBMC [1]; [4]) was “YES”, the “significant reduction of IFN-α2” value (normal human PBMC [1]; [4]) was “YES” and the “significant reduction of IFN-γ” value (normal human PBMC [1]; [4]) was “YES”. For the same molecule, the “significant reduction of IL-4” value (normal human PBMC [1]; [4]) was “YES”, the “significant reduction of IL-5” value (normal human PBMC [1]; [4]) was “YES” and the “significant reduction of IL-12” value (normal human PBMC [1]; [4]) was “YES”. The “significant reduction of IL-13” value (normal human PBMC [1]; [4]) was “YES”, the “significant reduction of IL-15” value (normal human PBMC [1]; [4]) was “YES” and the “significant reduction of IL-18” value (normal human PBMC [1]; [4]) was “YES”. For the same molecule, the “significant reduction of PDGF” value (normal human PBMC [1]; [4]) was “YES”, the “significant reduction of TNF α” value (normal human PBMC [1]; [4]) was “YES” and the “number of different cytokines whose production is down regulated” value (normal human PBMC [1]; data from Gemmus Pharma, Inc studies and the present work together) was “approximately 25”. For the same molecule, the “nominal reduction in the ex vivo production of IFNα” value (normal human PBMC [1]; stimulated PBMC, statistically significant) was “less than 2 fold”, the “IL-2 reduced by treatment” value (influenza (H1N1); [5]) was “reduced” and the “IL-6 reduced by treatment” value (influenza (H1N1); [5]) was “reduced”. The “IL-10 reduced by treatment” value (influenza (H1N1); [5]) was “reduced”, the “IL-8 production suppressed by treatment” value (influenza (H1N1); mouse, in vivo) was “significantly suppressed” and the “repression of IFNα concentrations” value (influenza (H1N1); mouse, in vivo) was “no significant repression”. For the same molecule, the “cytotoxicity (Alamar blue viability assessment)” value (normal human PBMC [2]) was “no cytotoxicity”, the “IL-2 reduced by treatment” value (influenza (H5N1)) was “reduced” and the “IL-6 reduced by treatment” value (influenza (H5N1)) was “reduced”. The “IL-8 reduced by treatment” value (influenza (H5N1)) was “reduced”, the “IL-10 reduced by treatment” value (influenza (H5N1)) was “reduced” and the “cytokine production, comparison with dexamethasone” value (CRS) was “superior to dexamethasone”. The “survival benefits over dexamethasone” value (CRS) was “greater survival benefits”.
